Holding throughout (test): growth of human tumour cells (NCI), 48 h
The subject of test [1] is SK-MEL-28 melanoma.
In test [2] the test system is UACC-257 melanoma.
For test [3], the system named is IGROV1 ovarian.
For test [4], the system named is A498 renal.
Test [5] has as its system BT-549 breast.
The test system of test [6] is HCC-2998 colon.
In test [7] the test system is MDA-MB-435.
Test [8] has as its system SK-MEL-2 melanoma.
The test system of test [9] is DU-145 prostate.
Test [10] has as its system UACC-62 melanoma.

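Exposure lasted 48 hours, with cells grown in 96-well plates and compounds tested at five concentrations. TGI: concentration producing complete growth inhibition.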 A value given as a limit tells only on which side of the number the result lay.

On to `O=C1CC[C@@]2(O)[C@H]3Cc4ccc(-c5ccccc5)c5c4[C@@]2(CCN3CC2CC2)[C@H]1O5`, for which the TGI is more than 100 µM in test [1]; 31.3 µM in test [2]; more than 100 µM in test [3]; 36.6 µM in test [4]; 31.3 µM in test [5]; 33.8 µM in test [6]. Further, the TGI was determined as 26.6 µM in test [7], 33.7 µM in [8], 62.7 µM in [9] and 25.2 µM in test [10].
Take `CC(=O)Oc1ccc2c(c1)CC[C@@H]1C2[C@@H](O[N+](=O)[O-])C[C@@]2(C)C1CC[C@@H]2O[N+](=O)[O-]` (some centres undefined): the TGI in test [1] came to 28.7 µM; in test [2], 25.9 µM; in test [3] it was 30.7 µM; in [4], 32.8 µM; in test [5], 33.8 µM; in test [6], 25.9 µM. The TGI stood at 33.5 µM in [7], 31.5 µM in [8], 28.3 µM in test [9] and 32.5 µM in test [10].
With `Cc1cc(S(=O)(=O)Nc2nnc3cnc4ccccc4n23)c(S)cc1Cl`, the TGI in test [1], in test [2], in test [3], in [4], in test [5] and in test [6] was more than 100 µM each time. The TGI in test [7], in [8], in test [9] and in test [10] was more than 100 µM throughout.
Turning to `COc1c(-c2nc3nc(N4CCN(C)CC4)ccc3[nH]2)cc(OC)c2c1nc(COC(C)=O)n2C`, the TGI in test [2], in [3], in [4], in test [5], in test [7] and in [8] was more than 100 µM each time. The TGI in test [9] and in test [10] was more than 100 µM throughout.
In the case of `CC(=O)Nc1c(S(=O)(=O)c2ccccc2)c(C)c(C)n1Cc1ccccc1`, the TGI in test [1], in [2], in [3], in test [4], in test [5] and in test [6] was more than 100 µM each time. Moreover, the TGI in test [7], in [8], in test [9] and in test [10] was more than 100 µM in each case.
Turning to `COC(=O)N[C@H](C(=O)O)C(C)O[Si](C)(C)C(C)(C)C` (some centres undefined), the TGI in [1], in test [2], in test [3], in [4], in test [5] and in test [6] was more than 100 µM in each case. Also, the TGI in [7], in test [9] and in test [10] was more than 100 µM in each case.
In the case of `C=C(C)COC1CCCCO1` (centres undefined), the TGI in test [1], in [2], in test [3], in test [4], in test [5] and in test [6] was more than 100 µM throughout. Moreover, the TGI in test [7], in [8], in test [9] and in test [10] was more than 100 µM in each case.
As for `CC(C)(C)c1cc(OCc2nn3c(Cc4ccccc4)nnc3s2)c(Cl)cc1OCc1nn2c(Cc3ccccc3)nnc2s1`, the TGI is more than 100 µM in test [1]; 93.1 µM in test [2]; more than 100 µM in [3]; more than 100 µM in [4]; more than 100 µM in test [5]; more than 100 µM in [6]. In addition, the TGI in test [7], in test [8], in test [9] and in [10] was more than 100 µM each time.
On to `CSc1ccn(C2CC(F)C(CO)O2)c(=O)n1` (centres undefined), for which the TGI in test [2], in [3], in test [4], in test [5], in [6] and in test [7] was more than 100 µM in each case. Further, the TGI in test [8], in [9] and in test [10] was more than 100 µM in each case.
Take `O=C(/C=C(\S/C=C(/c1ccccc1)N1CCn2c(C(=O)c3ccccc3)c(C(=O)c3ccccc3)c(C(=O)c3ccccc3)c21)C(=O)c1ccccc1)c1ccccc1`: the TGI in test [1], in test [2], in test [3], in [5], in [6] and in test [7] was more than 10 µM in each case. For the same molecule, the TGI in test [8], in test [9] and in test [10] was more than 10 µM throughout.
With `CCOC(=O)C(Cc1ccc(OC(=O)OC(C)(C)C)cc1)NC(=O)OC(C)(C)C` (centres undefined), the TGI was more than 100 µM in test [1]; 54.3 µM in [2]; more than 100 µM in test [3]; more than 100 µM in test [5]; 76.6 µM in test [6]; more than 100 µM in [7]. Also, the TGI is more than 100 µM in [8], 96 µM in test [9] and more than 100 µM in [10].
For `CC1CC/C(=C\c2ccc(F)cc2)C(=O)/C1=C/c1ccc(F)cc1` (centres undefined), the TGI in test [1] was found to be 37 µM; in test [2] it was 29.9 µM; in [3], 11.1 µM; in test [4], 25.3 µM; in [5] it was 10.1 µM; in test [7], 28.4 µM. For the same molecule, the TGI in test [8] turned out to be 25.6 µM; in test [9], 17.1 µM; in test [10], 24.7 µM.
With `CCOC(=O)c1nc2ccc(C(F)(F)F)cc2nc1Nc1ccc(Cl)c(Cl)c1`, the TGI in [1], in [2], in [3], in test [4], in [5] and in test [6] was more than 100 µM each time. In addition, the TGI in [7], in test [9] and in test [10] was more than 100 µM in each case.
For `NNC(=S)NCCNC(=S)NN`, the TGI in [1], in [2], in test [3], in [5], in [6] and in test [7] was more than 100 µM each time. Also, the TGI in test [8], in test [9] and in test [10] was more than 100 µM each time.
Regarding `COc1cc(OC)c2c3c(OC)cc(OC)c4c(=O)c(O)c(C[C@@H](C)O)c(c5c(C[C@@H](C)O)c(O)c(=O)c1c25)c43`, the TGI in test [1] is 42 µM; in test [2] it was more than 100 µM; in [3], 49.2 µM; in test [4], 71.8 µM; in [5] it was 46 µM; in test [6], 32 µM. Moreover, the TGI in [7] was 32.1 µM; in [8], 68 µM; in [9] it was more than 100 µM.
For `O=C(N=c1ccc2nc(=O)[nH]n(O)c-2c1)C(F)(F)F`, the TGI in [1], in test [2], in test [3], in test [4], in test [5] and in test [7] was more than 100 µM throughout. In addition, the TGI in test [8], in test [9] and in test [10] was more than 100 µM each time.
In the case of `O=C(O)c1cnc(-n2[nH]c3c(c2=O)CCCC3)[nH]c1=O`, the TGI in test [1], in [2], in test [3], in test [4], in test [5] and in test [7] was more than 100 µM each time. In addition, the TGI in test [8], in test [9] and in [10] was more than 100 µM throughout.
As to `O=c1oc2ccccc2cc1-c1cn2c(n1)sc1ccccc12`, the TGI in test [1], in [2], in test [3], in [5], in [6] and in test [7] was more than 100 µM throughout. The TGI in test [8], in test [9] and in test [10] was more than 100 µM throughout.
For the molecule `CCOC(=O)C(NC(=O)c1ccccc1)(N1CCN(c2cc3c(cc2F)c(=O)c(C(=O)O)cn3CC)CC1)C(F)(F)F` (centres undefined), the TGI was 44.7 µM in test [2]; more than 100 µM in test [3]; 65.2 µM in test [4]; more than 100 µM in test [5]; more than 100 µM in [6]; more than 100 µM in [7]. In addition, the TGI in test [8], in test [9] and in test [10] was more than 100 µM throughout.
Turning to `CCOC(=O)NC(OC)(C(F)(F)F)C(F)(F)F`, the TGI in [1], in test [2], in test [3], in [4], in [5] and in test [6] was more than 100 µM each time. For the same molecule, the TGI in test [7], in test [9] and in [10] was more than 100 µM throughout.
As for `Cc1nc(C)c(N2CCNCC2)c(=O)[nH]1`, the TGI in test [1], in [2], in [3], in [4], in [5] and in test [6] was more than 100 µM in each case. Besides, the TGI in [7], in test [9] and in test [10] was more than 100 µM throughout.
